Laboratory results from patent US9464106B2, “Oligonucleotides useful for detecting and analyzing nucleic acids of interest” (Exiqon A/S, priority 2002, dated 2016).
Blank lines part the entries; values can stand above or below the compound they belong to. l = locked nucleic acid (LNA); {Biotin} = biotin label; d = 2'-deoxy (DNA)

What was measured:
[1] = system: DNA target 3′-d(CACTYTACG); assay: Thermal denaturation of ON1-ON11 towards DNA complements; assay type: binding; conditions: 1.5 μM of the two strands
[2] = system: C. elegans genes relevant for general stress response and metabolism of toxic compounds
[3] = system: human chromosome 21 alphaRI (680) locus alpha-satellite repeat; assay: FISH with chromosome-21 specific centromere LNA probes; assay type: binding; conditions: 40 min. hybridization at RT
human telomere repeat = assay: FISH with human telomere repeat LNA probe; assay type: binding; conditions: 5 pmoles probe, 30 min. hybridization at 37° C.
Procedure: Chromosome preparations were made by standard methods from peripheral lymphocyte cultures of two normal males. Slides were prepared 1-6 days prior to an experiment and treated with RNAse (10 μg/μl) at 37° C. for one hour before hybridization. […] FISH was carried out as described previously (Silahtaroglu et al, 1998) with the following modifications. […] Slides were washed after 30 min. hybridization at 37° C. Post washing steps included a 2×5 min 0.1×SSC at 60° C.; 5 min 2×SSC at 37° C.; 3 min 4×SSC/0.05% Tween20 at 37° C. and 5 min PBS. […] The whole procedure was carried out in the dark. The signals were visualized using a Leica DMRB epifluorescence microscope equipped with a SenSys charge-coupled device camera (Photometrics, Tucson, Ariz.), and IPLAB Spectrum Quips FISH software (Applied Imaging international Ltd., Newcastle, UK).

[4] = C. elegans, incubation 24 hours

Compound: 5′-d[2′-OMe(GTGATATGC)] [ON5, reference compound]
Tm, Y = A ([1]; 10 mM sodium phosphate, 100 mM sodium chloride, 0.1 mM EDTA, pH 7.0): 35 °C | Tm, Y = C ([1]; medium salt buffer): 14 °C | Tm, Y = G ([1]; medium salt buffer): 19 °C | Tm, Y = T ([1]; medium salt buffer): 21 °C

Compound: Cc1c(OCC(F)(F)F)ccnc1C[S+]([O-])c1nc2ccccc2[nH]1 (centres unmarked) [Lansoprazole]
Log2 transformed fold of change, HSP90 (C47E8.5) [2, 4]: −1.17 | Log2 transformed fold of change, Ubiquitin (M7.1) [2, 4]: −0.12 | Log2 transformed fold of change, CYP37A (F01D5.9) ([2]; in vivo): 0.98

melting point: 227.5 to 229 °C (dec.)
Compound: Nc1ncc2ncn([C@@H]3O[C@@]4(CO)CO[C@@H]3[C@@H]4O)c2n1 [compound 23, (1S,3R,4R,7S)-3-(2-aminopurin-9-yl)-7-hydroxy-1-hydroxymethyl-2,5-dioxabicyclo[2.2.1]heptane]

Compound: TgTgTaCcCaGcCaAaGgAgTtGa (TGTGTACCCAGCCAAAGGAGTTGA; sugars from the 5' end ldldldldldldldldldldldld, 5' {Biotin}, backbone and methylation of C not given here) [5′ biotin-labelled 24-mer FISH probe]
FISH signals on chromosomes [3]: prominent signals both on chromosomes 13 and 21

Compound: aCcCaGcCaAaGgAg (ACCCAGCCAAAGGAG; sugars from the 5' end dldldldldldldld, 5' {Biotin}, backbone and methylation of C not given here) [5′ biotin-labelled 15-mer FISH probe]
FISH signals on chromosomes [3]: prominent signals on chromosome 21

Compound: ttagggttagggttagggttaggg [human telomere repeat specific LNA oligonucleotide probe] (TTAGGGTTAGGGTTAGGGTTAGGG)
FISH signals on telomeres (human telomere repeat): prominent signals on the telomeres
